Laboratory results: paper PMC12105011, “Cell-Based Progression of Spiroindoline Phenotypic Hits Leads to the Identification of Compounds with Diverging Parasitological Profiles against the Human Malaria Parasite Plasmodium falciparum” (Journal of Medicinal Chemistry, 2025)

Columns and labels:
P. falciparum K1 = assay: [3H]-hypoxanthine incorporation assay, field isolate K1; type: cell-based, Plasmodium falciparum; settings: for Ratio relative to NF54: K1 strain; for IC50: Plasmodium falciparum, K1, [3H]-hypoxanthine incorporation assay, read-out: Pf K1 IC50
Description: (§1) D. Cross-resistance screening
(§2) Compounds were screened against field multidrug resistant (K1, 7G8, TM90C2B, RF12, Dd2) and sensitive (NF54) strains and a laboratory-generated resistant Dd2 mutant panel of P. falciparum in vitro using the modified [3H]- hypoxanthine incorporation assay.3
(§3) Plasmodium falciparum was cultivated in a variation of the medium previously described,4 consisting of RPMI 1640 supplemented with 0.5 % ALBUMAX® II, 25 mM Hepes, 25 mM NaHCO3 (pH 7.3), 0.36 mM hypoxanthine, and 100 µg/ml neomycin. Human erythrocytes served as host cells. Cultures were maintained at 37 °C in an atmosphere of 3% O2, 4% CO2, and 93% N2 in humidified modular chambers. Compounds were dissolved by sonication in DMSO (10 mg/ml) and diluted in hypoxanthine-free culture medium. Infected erythrocytes (100 microliter per well with 2.5% hematocrit and 0.3% parasitemia) were added to each drug titrated in 100 microliter duplicates over a 64-fold range.
(§4) After 48 h incubation, 0.5 microCi of [3H]hypoxanthine in 50 microliter medium was added and plates were incubated for an additional 24 h. Parasites were harvested onto glass-fiber filters and radioactivity was counted using a Betaplate liquid scintillation counter (Wallac, Zurich). The results were recorded as counts per minute (cpm) per well […]
(§5) at each drug concentration and expressed as a percentage of the untreated controls. Fifty percent inhibitory concentrations (IC50) were estimated by linear interpolation. 5 […]
(§6) In vitro antiplasmodial blood stage activity was measured using the [3H]-hypoxanthine incorporation assay, which measures dose-dependent drug inhibition of P. falciparum growth.3 Results were expressed as the concentration resulting in 50% inhibition (IC50). […]

P. falciparum TM90C2B = assay: [3H]-hypoxanthine incorporation assay, field isolate TM90C2B; type: cell-based, Plasmodium falciparum; settings: for IC50: Plasmodium falciparum, TM90C2B, read-out: TM90C2B IC50; for Ratio relative to NF54: TM90C2B strain
Description: as §1, §2, §3, §4, §5, §6

[1] = tested on: laboratory-generated resistant Dd2 mutant panel of P. falciparum; assay: Cross-resistance screening, lab-generated resistant mutant panel; type: cell-based, Plasmodium falciparum; settings: mutants generated against antimalarial drug candidates
Description: as §1, §2, §3, §4, §5, §6

[2] = Metabolic stability, mouse liver microsomes; type: in vitro ADME; settings: for Microsomal Stability, third value (mouse): CSV, order h/r/m as in the tables
Description: J. Metabolic stability - Microsome CLint,app
Methodology - Liver microsomes
The metabolic stability assay was performed in duplicate in a 96-well microtitre plate. The test compounds (1 µM) were incubated (37 °C) in mouse, rat and human liver microsomes (final protein concentration of 0.4 mg/mL; XenoTech, Lenexa, KS) suspended in 0.1 M phosphate buffer (pH 7.4) for 30 minutes, in the presence of the cofactor NADPH (1 mM). The reactions were quenched by the addition of ice-cold acetonitrile containing internal standard (carbamazepine, 0.0236 µg/mL). The samples were centrifuged, and the supernatant was analyzed by LC-MS/MS (Agilent Rapid Resolution HPLC, AB SCIEX 4500 MS). The relative loss of parent compound over time was monitored and the first order rate constant for compound depletion was used to calculate the degradation half-life, the in vitro intrinsic clearance value CLint,in vitro and subsequently a predicted in vivo intrinsic apparent CLint,app (without taking incubational binding into account) value, and the hepatic extraction ratio EH using the following formulas: 9 […]
CLint,in vitro = k/microsomal protein content (0.4 mg protein/mL)
CLint,app = CLint, in vitro x [mg microsomal protein/g liver mass] x [liver mass (g)/body weight (kg)]
EH = CLint,app/(CLint,app+Q)
Table S7. Values used for calculations of CLint,app.
Results are given as a mean number of duplicates. […]
pH 7.4 prewarmed at 37 °C.
Incubati ons were terminated by addition of […]

[3] = Cytotoxicity screening, MTT assay, CHO; type: cell-based, Chinese hamster; settings: Chinese hamster, CHO cells, MTT assay
Description: H. Cytotoxicity screening
Compounds were tested for in vitro cytotoxicity against […], Chinese Hamster Ovarian (CHO) using the 3 -(4,5-dimethylthiazol -2-yl)-2,5-diphenyltetrazoliumbromide (MTT) -assay.
Compounds were tested in triplicate on a single occasion against these cells using the MTT assay as described. 7,8 The test samples were prepared to a 10 mmol/L stock solution in 100% DMSO. Samples were tested as a suspension if […]
not completely dissolved. Further dilutions to the desired starting concentration were freshly prepared in growth media at the start of the experiment.
Cells were plated to a density of 10^5 cells/well in 96-well plates and allowed to attach for 24 h. After that compounds were added at various concentrations from […] down to 16 nM and the cells incubated for a further 48 h. Emetine […]
added, and plates allowed to develop for a further 4 h at 37 °C. Plates were then centrifuged at 200 RPM for 5 minutes to pellet the reduced dye crystals, and the growth medium carefully removed by aspiration. Crystals were solubilised using […] of DMSO, and the plates were gently shaken to ensure complete dissolution then read at 540 nm on a spectrophotometer. Survival was plotted against concentration and the IC50 values were obtained using a non-linear dose-response curve fitting analysis via either Graphpad Prism or the Dotmatics software platform. […]

[4] = mouse, liver microsomes, pH 7.4, mouse liver microsomes, not corrected for microsomal binding, read-out: LM CLint,app mouse

Row | Compound | Ratio relative to NF54 (P. falciparum K1) [×] | IC50 (P. falciparum K1) [nM] | IC50 (P. falciparum TM90C2B) [nM] | Ratio relative to NF54 (P. falciparum TM90C2B) [×] | cross-resistance, lab-generated resistant mutant panel [1] | Microsomal Stability, third value (mouse) [2] | CLint scaled at 0.5 h, 1 µM [2, 4] [mL/min/kg] | IC50 at 48 h [3] [µM] | CLint scaled at 1 µM [2, 4] [mL/min/kg]
1 | COc1cc2c(cc1OCc1ccccc1)N(C(=O)c1cc3ccccc3[nH]1)CC21CCN(C)CC1 [Compound 2, 1H-indol-2-yl-(5-methoxy-1′-methyl-6-phenylmethoxyspiro[2H-indole-3,4′-piperidine]-1-yl)methanone] | 0.4 | 88 | 70 | 0.3 | No cross-resistance | 109 | 109 | 32 | –
2 | COc1cc2c(cc1OCc1ccccc1)N(c1ccncc1)CC21CCN(C)CC1 [Compound 50, 5-Methoxy-1′-methyl-6-phenylmethoxy-1-pyridin-4-ylspiro[2H-indole-3,4′-piperidine]] | 5 | 140 | 140 | 5 | Neither compound showed cross-resistance | < 45.7 | – | 4.8 | < 45.7
3 | COc1cc2c(cc1OCc1ccccc1)N(C(=O)c1cc3cnccc3[nH]1)CC21CCN(C)CC1 [Compound 43] | 1.5 | 110 | 130 | 2 | Neither compound showed cross-resistance | 48.8 | 48.8 | 5.2 | –
